# Experimental data as given in US8664271B2, “Stabilized leukotriene B4 (LTB4) agent pharmaceutical formulation” (LTB4 Sweden AB, priority 2004, dated 2014).
# Legend:
# [1] = Stability of freeze-dried LTB4 Na salt solutions (mannitol, with or without HSA); assay type: physicochemical; conditions: for level of impurities: freeze-dried solution 35 μg/ml, pH 7.5, 4% mannitol
# Procedure: Aqueous isotonic LTB4 Na salt solutions at the concentration of 35 μg/ml in phosphate buffered saline (3 mM sodium phosphate buffer, pH 7.5 or 9.5) containing 0.01% EDTA were obtained as described in Example 5. Mannitol was added to all solutions to the final concentration of 4% in order to generate a solid residue (mannitol bread) containing LTB4 Na salt and all components of the excipient upon freeze-drying. Fatty acid free (delipidated) human serum albumine (HSA, Sigma Chemicals, St-Louis, Mo.) was added to some of the solutions to the final concentration of 1 mg/ml prior to final pH adjustment (to 7.5 or 9.5). Solutions were dispensed in 2 ml vials, frozen at −20° C. and freeze-dried. The vials containing the freeze-dried solutions (mannitol breads) were then sealed as described in Example 1 (but under air instead of argon), and stored in the dark at 40±5° C. After 1.5 or 4.5 months, vials were opened and the mannitol breads (containing LTB4) were dissolved using 1 ml of water to regenerate the original LTB4 Na salt solutions at 35 μg/ml. LTB4 and impurities were then analyzed by reverse phase HPLC as described in Example 1.
# [2] = Forced degradation of ethanolic solutions of LTB4 (acid form and Na salt); assay type: physicochemical
# Procedure: The ethanolic solution of LTB4 (acid form) (EtOH/water, 95/5) obtained from the manufacturer (Cascade Biochem, UK) was diluted with EtOH/water, 95/5 to generate ethanolic solutions of LTB4 (acid form) at 9 and 0.9 mg/ml. Ethanolic solutions of the sodium salt of LTB4 at 9 and 0.9 mg/ml were obtained by adding 1.05 equivalent of sodium hydroxide. Solutions of the sodium salt of LTB4 at the concentration of 9 and 0.9 mg/ml in 75/25 EtOH/10 mM glycine in water at pH 10.5 (sodium hydroxide), were obtained by mixing 3 volumes of solutions of the sodium salt of LTB4 at 12 and 1.2 mg/ml in EtOH/water, 95/5 with 1 volume of 40 mM glycine buffer at pH 10.5. Solutions were dispensed in 2 ml vials for storage under air in the dark at −80° C. and 40±5° C. for 17 months prior to reverse phase HPLC analysis of LTB4 and impurities as described in Example 1.
structure (smiles),measurement,setting,value
CCCCC/C=C\C[C@@H](O)/C=C/C=C/C=C\[C@@H](O)CCCC(=O)[O-].[Na+] [LTB4 Na salt],level of impurities,[1]; 1.5 months at 40° C.,22.7%
same,level of impurities,[1]; 4.5 months at 40° C.,51.3%
same,level of impurities,[1]; redissolved immediately (time 0),2.9%
same,effect of elevation of pH from 7.5 to 9.5 prior to freeze-drying,"[1]; freeze-dried, 1.5 months (with HSA) or 4.5 months at 40° C.",striking decrease in the level of impurities
same,decrease in the level of impurities by addition of HSA,"[1]; freeze-dried, pH 7.5, HSA 1 mg/ml, 1.5 months of storage at 40° C.",~50%
same,impurity level,"[2]; 0.9 mg/ml in 75/25 EtOH/10 mM glycine pH 10.5, 17 months at 40° C.",4.3 % of AUC
same,impurity level,"[2]; 0.9 mg/ml in 95/5 EtOH/water, 17 months at 40° C.",4.9 % of AUC
same,impurity level,"[2]; 9 mg/ml in 75/25 EtOH/10 mM glycine pH 10.5, 17 months at 40° C.",3.8%
same,level of impurities,"[2]; 9.0 mg/ml in EtOH/water 95/5, 17 months at 40° C., AUC at 270 nm",5.4 % of AUC
